This is an account of results in patent publication US20140309300A1, “Bicyclic Labdane Diterpenes for Use in the Treatment of TRPC6 Associated Diseases” (UNIVERSITAET LEIPZIG, priority 2011, published 2014).

The target of one data set is T1, human TRPM3 (Homo sapiens, UniProt Q9HCF6).
T1 construct: expressed in transfected cells; host or cells: HEK293 (line hTRPM3)
Nature of the data set: Specificity test, calcium influx in hTRPM3 HEK293 cells. The class given is cell-based. Conditions: FIG. 1. As for the experimental part: (§1) HEK293 (ATCC CRL-1573) cells were grown in Earle's Minimum Essential Medium (MEM) supplemented with 10 Vol.-% fetal calf serum, 2 mM (mmol/l) L-glutamine, 100 units/ml penicillin and 0.1 mg/ml streptomycin. Cells were seeded in 35-mm culture dishes, grown for 24 h, and transfected at 80% confluence with 2 μg of plasmid DNA encoding a C-terminally YFP-tagged human TRPC6 and 4 μl of Fugene HD reagent (Roche) in 100 μl serum-free medium. To select stably transfected HEKhTRPC6-YFP clones, 1 mg/ml geneticin (G418) was added to the medium. […] To verify functional expression, different clones were isolated and tested by single-cell [Ca^2+]i imaging experiments. […]
(§2) To assess the effect of bicyclic labdane diterpenes on calcium transport via TRP channels, larixol and larixol acetate was added to cell lines from example 1. Blocking of the respective TRP channel was determined by determining increases in [Ca^2+]i in suspensions. To activate the TRP channels, an activator of the respective channel was added, and changes in fluorescence intensity of intracellularly loaded fluo-4 was determined with a multiwell plate reader device (Polarstar Omega, BMG Labtech). For HEKrTRPV1 cells, assessment of activation was performed by monitoring the intracellular acidification, which results in fluorescence loss of co-expressed YFP. […]

The subject of the next data set is other TRP channels. Nature of the data set: Specificity tests in cell lines overexpressing other TRP channels. The class given is cell-based. Conditions: FIG. 1. Here is the method: as §1, §2
Another data set has as its target T2, human TRPM8 (Homo sapiens, UniProt Q7Z2W7).
T2 construct: expressed in transfected cells; host or cells: HEK293 (line hTRPM8)
The data set can be described thus: Specificity test, calcium influx in hTRPM8 HEK293 cells. The class given is cell-based. To be noted: FIG. 1. As for the experimental part: as §1, §2

The target of a further data set is T3, human TRPM2 (Homo sapiens, UniProt O94759).
T3 construct: expressed in transfected cells; host or cells: HEK293 (line hTRPM2)
Nature of the data set: Specificity test, calcium influx in hTRPM2 HEK293 cells. The class given is cell-based. Conditions: activator 1 mM H2O2; FIG. 1. Here is the method: as §1, §2

Data set [1] addresses T4, TRPC6 (Homo sapiens, UniProt Q9Y210).
T4 construct: expressed in transfected cells
T4 sequence (Q9Y210 1-931): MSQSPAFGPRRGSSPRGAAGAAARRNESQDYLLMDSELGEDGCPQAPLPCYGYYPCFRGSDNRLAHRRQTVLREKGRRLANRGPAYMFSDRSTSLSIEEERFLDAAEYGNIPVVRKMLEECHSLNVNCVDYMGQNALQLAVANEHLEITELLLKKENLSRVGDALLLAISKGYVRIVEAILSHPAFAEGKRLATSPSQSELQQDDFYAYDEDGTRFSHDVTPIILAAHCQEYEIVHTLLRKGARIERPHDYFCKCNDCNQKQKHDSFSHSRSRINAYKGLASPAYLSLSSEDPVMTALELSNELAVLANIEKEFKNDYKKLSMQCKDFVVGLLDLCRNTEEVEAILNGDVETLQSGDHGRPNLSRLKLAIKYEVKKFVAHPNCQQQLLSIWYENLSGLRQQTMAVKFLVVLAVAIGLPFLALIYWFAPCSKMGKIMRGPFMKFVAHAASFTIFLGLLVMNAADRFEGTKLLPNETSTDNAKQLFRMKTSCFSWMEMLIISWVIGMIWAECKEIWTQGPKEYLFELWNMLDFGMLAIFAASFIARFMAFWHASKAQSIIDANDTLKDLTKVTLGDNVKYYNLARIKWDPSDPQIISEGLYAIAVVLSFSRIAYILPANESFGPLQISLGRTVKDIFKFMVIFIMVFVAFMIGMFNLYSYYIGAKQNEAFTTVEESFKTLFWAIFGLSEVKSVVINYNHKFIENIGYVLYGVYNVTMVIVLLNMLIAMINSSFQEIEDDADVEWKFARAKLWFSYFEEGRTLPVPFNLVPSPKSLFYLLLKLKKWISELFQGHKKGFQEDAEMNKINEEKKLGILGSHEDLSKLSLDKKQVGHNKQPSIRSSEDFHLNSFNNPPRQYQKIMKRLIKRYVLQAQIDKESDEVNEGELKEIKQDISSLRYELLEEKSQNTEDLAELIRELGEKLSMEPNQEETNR
Nature of the data set: Calcium influx (fluo-4 [Ca2+]i) in TRPC6-expressing HEK293 cells. The class given is cell-based. To be noted: 0.01 to 20 μM; activated with 50 μM OAG or GPCR agonist mix; FIG. 1. As for the experimental part:
as §1, §2

For a further data set, the target named is T5, rat TRPV1 (Rattus norvegicus, UniProt O35433).
T5 construct: expressed in transfected cells; host or cells: HEK293 (line rTRPV1)
The data set can be described thus: Specificity test in HEKrTRPV1 cells (intracellular acidification, YFP fluorescence loss). The class given is cell-based. Conditions: activator 2 μM capsaicin; FIG. 1. Here is the method:
as §1, §2

For data set [2], the system named is hypoxia-induced pulmonary vasoconstriction (HPV). The data set can be described thus: Hypoxia-induced pulmonary vasoconstriction (HPV) in isolated perfused mouse lungs. The class given is in vivo. Conditions: 5 μM in perfusion solution; isolated perfused C57BL/6 mouse lungs; 1% O2. As for the experimental part: FIG. 4 Inhibition of hypoxia-induced pulmonary vasoconstriction (HPV) by larixol acetate.
To assess whether the TRPC6 blocking action of larixol acetate is potent to prevent HPV, larixol acetate was supplied in an induced mouse model of HPV.
Anesthetized, male adult C57BL/6 mice were subjected to tracheostomy, followed by volume-controlled normoxic ventilation. Midsternal thoracotomy was performed, and two cannulas (1 mm inner diameter) were inserted into the pulmonary artery and left atrium, respectively. Lungs were then perfused at a constant flow at 37° C. with a Hanks' Balanced Salt Solution (Sigma-Aldrich) containing 5% bovine serum albumin (Sigma-Aldrich) and 5% dextran (Sigma-Aldrich) at pH of 7.4. Indomethacin (30 μM) and N^G-nitro-L-arginine methylester (1 mM) were added to the perfusate to inhibit endogenous prostaglandin and nitric oxide synthesis.

In a further data set the test system is HEK293 cells. The data set can be described thus: Propidium iodide exclusion cytotoxicity assay. The class given is cell-based, human. Conditions: concentrations up to 10 μM, 24 h incubation. Here is the method: FIG. 3 Larixol and larixol acetate to not show a cytotoxic effect on HEK293 cells. The cellular integrity was determined by exclusion of the DNA-binding fluorescent dye propidium iodide (PI).
To assess possible cytotoxic effects of the larixol and larixol acetate, a propidium iodide exclusion assay was performed. Cells were grown in 24 well plates for 18 h and then incubated with the indicated compounds for another 24 h (FIG. 3). Propidium iodide (2 μg/ml, Invitrogen) was added, and the fluorescence (excitation at 544 nm and detection at 620 nm) was followed. To obtain a maximum reference value, 0.2% Triton X-100 was added to some samples prior to propidium iodide injection. The following controls were tested: • negative controls: HBS buffer (“control”), or 0.1% DMSO in HBS buffer, added to the growth medium in the same volume as for 10 μM larixol (“0.1% DMSO”). • positive controls: 2 μm staurosporine, 50 μm digitonin

Data set [3] deals with T4, TRPC6. Nature of the data set: Electrophysiological whole-cell recordings of TRPC6-mediated current. The class given is cell-based. Here is the method: FIG. 2 Larixol acetate acts from the outside of the cells. A: Electrophysiological whole-cell recordings were performed to determine the TRPC6-mediated current upon direct stimulation with 50 μM OAG or by activating heterotrimeric G-proteins with intracellularly applied AlF4 (50 μM), to trigger phospholipase C activation, resulting in the formation of endogenous diacylglycerols. To expose the cytosolic side of the channel protein to larixol acetate, larixol acetate was added to the intracellular solution (hatched bars and filled bars). Control solutions without larixol acetate (open bars) were measured in parallel.
TRPC6-expressing cells were seeded on glass coverslips, mounted onto the stage of an inverted microscope, and contacted with a borosilicate glass pipet filled with an intracellular solution. After reaching a gigaohm seal, the whole-cell configuration was obtained by gently applying a negative pressure at the pipet. Whole-cell currents were measured in the voltage clamped mode with a holding potential of −60 mV, and normalized for the cell size by dividing current amplitudes by the cellular capacitance (pA/pF). TRPC6 was activated either by adding OAG to the bath solution or by including 50 μM AlF4^− in the pipet solution.
In some experiments, the pipet solution was additionally supplemented with 1 μM larixol acetate to apply the modulator intracellularly (FIG. 2A, “inside”).

In a further data set the test system is lung edema formation. The data set can be described thus: Ischemia-reperfusion-associated lung edema formation, rabbit lung transplantation model. The class given is in vivo. Conditions: 5 μM in Perfadex and Tyrode solutions, explanted rabbit lungs. Here is the method:
FIG. 5 Inhibition of ischemia-reperfusion-associated lung edema formation by larixol acetate. Rabbit lungs were explanted and extracorporally perfused with Perfadex solution and ventilated under oxygenized conditions (open symbols) or under hypoxic conditions (filled symbols). Lungs were then placed on ice for 2 h, and reperfused for 90 min with tyrode solution. Upper panel: control experiments without larixol acetate, lower panel: similar experiments, but with Perfadex® and tyrode solutions that were supplemented with 5 μM larixol acetate. Increases in the lung wet weight indicate edema formation. Data represent means and S.E.M. (Standard error of the mean) of 6 individual experiments for each treatment group.
To assess whether larixol acetate mediated TRPC6 block can prevent endothelial dysfunction, the effect of larixol acetate was tested on lung edema formation in a rabbit lung transplantation model.
New Zealand white rabbits were anesthetized and subjected to tracheostomy. Animals were mechanically ventilated with room air (40 breaths min^−1) The thorax was opened by midline sternotomy, pulmonary arteries and the left atrium were cannulated, the heart-lung-block was excised and transferred to a thermostatted artificial thorax chamber. […] The wet weight of the lungs was recorded during the whole procedure. […]

T2 sequence (Q7Z2W7 whole entry): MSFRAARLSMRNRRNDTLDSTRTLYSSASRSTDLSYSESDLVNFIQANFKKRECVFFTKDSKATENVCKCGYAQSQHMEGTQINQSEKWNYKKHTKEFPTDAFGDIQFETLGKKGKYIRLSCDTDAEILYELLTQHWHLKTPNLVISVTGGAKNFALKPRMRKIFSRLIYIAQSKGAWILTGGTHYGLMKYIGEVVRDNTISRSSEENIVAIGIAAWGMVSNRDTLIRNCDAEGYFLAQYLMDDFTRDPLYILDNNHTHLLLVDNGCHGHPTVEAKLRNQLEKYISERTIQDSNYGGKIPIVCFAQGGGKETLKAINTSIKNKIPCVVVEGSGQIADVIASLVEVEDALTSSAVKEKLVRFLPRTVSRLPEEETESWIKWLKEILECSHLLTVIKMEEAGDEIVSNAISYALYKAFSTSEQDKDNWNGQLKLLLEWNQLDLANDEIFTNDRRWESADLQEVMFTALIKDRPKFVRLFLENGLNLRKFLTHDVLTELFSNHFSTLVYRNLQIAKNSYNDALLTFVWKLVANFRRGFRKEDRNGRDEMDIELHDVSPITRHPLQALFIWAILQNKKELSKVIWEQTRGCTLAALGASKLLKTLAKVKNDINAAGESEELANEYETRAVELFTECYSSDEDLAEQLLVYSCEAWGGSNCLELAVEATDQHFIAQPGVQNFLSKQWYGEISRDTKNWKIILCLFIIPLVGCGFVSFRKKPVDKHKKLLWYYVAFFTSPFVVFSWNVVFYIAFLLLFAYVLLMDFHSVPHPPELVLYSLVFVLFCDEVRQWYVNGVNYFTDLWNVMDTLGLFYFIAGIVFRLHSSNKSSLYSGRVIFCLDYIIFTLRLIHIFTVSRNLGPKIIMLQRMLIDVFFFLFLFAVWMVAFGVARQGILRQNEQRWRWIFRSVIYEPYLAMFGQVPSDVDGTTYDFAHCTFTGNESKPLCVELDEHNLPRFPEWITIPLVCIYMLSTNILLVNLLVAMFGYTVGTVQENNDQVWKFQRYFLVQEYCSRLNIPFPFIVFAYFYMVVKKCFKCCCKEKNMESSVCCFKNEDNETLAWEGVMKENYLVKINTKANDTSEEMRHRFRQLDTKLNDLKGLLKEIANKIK
T5 sequence (O35433 whole entry): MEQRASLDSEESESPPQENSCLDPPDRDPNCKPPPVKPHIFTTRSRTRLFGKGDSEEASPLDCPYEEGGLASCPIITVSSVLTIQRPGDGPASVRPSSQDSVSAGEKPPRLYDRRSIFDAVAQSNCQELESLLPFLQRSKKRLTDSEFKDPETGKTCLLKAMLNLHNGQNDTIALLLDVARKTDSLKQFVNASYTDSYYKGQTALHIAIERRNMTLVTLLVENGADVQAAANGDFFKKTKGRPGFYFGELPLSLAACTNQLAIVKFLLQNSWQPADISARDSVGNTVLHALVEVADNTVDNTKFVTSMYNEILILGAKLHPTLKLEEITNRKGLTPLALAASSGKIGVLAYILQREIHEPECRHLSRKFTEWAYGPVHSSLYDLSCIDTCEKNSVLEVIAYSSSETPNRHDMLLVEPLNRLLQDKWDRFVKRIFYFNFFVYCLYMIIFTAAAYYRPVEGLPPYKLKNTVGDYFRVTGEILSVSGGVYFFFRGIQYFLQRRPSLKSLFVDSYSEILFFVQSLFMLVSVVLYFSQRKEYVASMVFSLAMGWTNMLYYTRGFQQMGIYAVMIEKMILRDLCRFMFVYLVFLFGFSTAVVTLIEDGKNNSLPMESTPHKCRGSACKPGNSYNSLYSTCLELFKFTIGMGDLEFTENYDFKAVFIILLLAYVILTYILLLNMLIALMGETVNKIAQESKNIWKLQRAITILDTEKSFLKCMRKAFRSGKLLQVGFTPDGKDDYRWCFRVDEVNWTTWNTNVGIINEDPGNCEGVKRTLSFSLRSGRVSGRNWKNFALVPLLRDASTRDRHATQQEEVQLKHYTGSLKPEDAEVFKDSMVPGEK
T3 sequence (O94759 whole entry): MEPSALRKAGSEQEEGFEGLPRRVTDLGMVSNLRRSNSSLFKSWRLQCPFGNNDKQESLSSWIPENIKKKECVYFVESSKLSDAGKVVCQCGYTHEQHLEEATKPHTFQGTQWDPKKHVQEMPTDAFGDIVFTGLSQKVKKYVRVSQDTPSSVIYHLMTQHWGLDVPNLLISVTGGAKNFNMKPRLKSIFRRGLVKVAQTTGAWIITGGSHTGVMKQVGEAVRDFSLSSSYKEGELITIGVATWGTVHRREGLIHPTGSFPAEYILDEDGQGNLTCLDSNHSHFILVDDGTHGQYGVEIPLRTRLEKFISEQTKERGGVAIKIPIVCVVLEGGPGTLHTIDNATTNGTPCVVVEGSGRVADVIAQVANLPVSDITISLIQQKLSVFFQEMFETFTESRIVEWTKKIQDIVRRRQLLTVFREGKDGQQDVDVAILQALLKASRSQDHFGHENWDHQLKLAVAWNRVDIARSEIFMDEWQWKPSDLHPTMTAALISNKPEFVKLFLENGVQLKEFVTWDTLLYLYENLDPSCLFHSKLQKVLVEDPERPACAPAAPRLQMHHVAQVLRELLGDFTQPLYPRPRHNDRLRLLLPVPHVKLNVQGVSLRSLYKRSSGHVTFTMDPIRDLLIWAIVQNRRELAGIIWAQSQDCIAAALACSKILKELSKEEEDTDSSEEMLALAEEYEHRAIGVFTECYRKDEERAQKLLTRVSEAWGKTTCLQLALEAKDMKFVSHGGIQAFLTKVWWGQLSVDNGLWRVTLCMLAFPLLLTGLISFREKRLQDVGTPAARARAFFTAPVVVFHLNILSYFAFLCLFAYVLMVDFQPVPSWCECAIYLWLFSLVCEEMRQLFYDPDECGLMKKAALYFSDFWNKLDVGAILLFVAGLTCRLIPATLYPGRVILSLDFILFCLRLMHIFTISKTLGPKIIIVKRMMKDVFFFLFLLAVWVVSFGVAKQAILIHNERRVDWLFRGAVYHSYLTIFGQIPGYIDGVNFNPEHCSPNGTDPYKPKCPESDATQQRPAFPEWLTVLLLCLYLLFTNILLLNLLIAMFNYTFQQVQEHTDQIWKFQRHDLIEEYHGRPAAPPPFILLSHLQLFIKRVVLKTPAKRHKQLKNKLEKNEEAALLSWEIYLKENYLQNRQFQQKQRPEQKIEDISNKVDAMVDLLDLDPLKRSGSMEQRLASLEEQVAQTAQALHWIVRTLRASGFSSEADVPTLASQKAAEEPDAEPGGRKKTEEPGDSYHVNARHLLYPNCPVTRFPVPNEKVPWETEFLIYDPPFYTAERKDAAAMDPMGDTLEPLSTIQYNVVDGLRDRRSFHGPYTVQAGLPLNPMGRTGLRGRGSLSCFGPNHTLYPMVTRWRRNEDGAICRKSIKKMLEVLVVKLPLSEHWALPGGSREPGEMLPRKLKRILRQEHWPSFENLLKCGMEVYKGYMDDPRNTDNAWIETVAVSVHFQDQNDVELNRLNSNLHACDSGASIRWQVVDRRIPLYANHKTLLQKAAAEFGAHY

Take `C=C[C@@](C)(O)CC[C@H]1C(=C)C[C@H](O)[C@H]2C(C)(C)CCC[C@]12C` [larixol]: on human TRPM3, the “effect on TRPM3” value is “not affected”. In addition, the “inhibition of other TRP channels” value with other TRP channels is “not, or only poorly, inhibited”. Besides, the “effect on TRPM8” value on human TRPM8 was “not affected”. Further, on human TRPM2, the “effect on TRPM2” value was “not affected”. The “inhibition of calcium influx via TRPC6” value on TRPC6 [1] is “selectively inhibit calcium influx via TRPC6”. The “effect on TRPV1” value at rat TRPV1 is recorded as “not affected”.

Consider larixol acetate, for which the “effect on TRPM3” value at human TRPM3 is “not affected”. Also, the “inhibition of other TRP channels” value with other TRP channels is recorded as “not, or only poorly, inhibited”. For the same compound, the “hypoxia-induced increase in pulmonary artery pressure (PAP)” value in [2] is “completely abrogated”. In addition, the “cytotoxic effect (propidium iodide exclusion)” value in the data set with HEK293 cells is “no cytotoxic effect”. The “effect on TRPM8” value at human TRPM8 is on record as “not affected”. Moreover, on human TRPM2, the “effect on TRPM2” value is on record as “not affected”. Further, on TRPC6 [1], the “inhibition of calcium influx via TRPC6” value is recorded as “selectively inhibit calcium influx via TRPC6”. Further, on TRPC6 [3] (1 μM in pipet solution), the “suppression of OAG- or AlF4-induced TRPC6 activation, intracellular exposure (inside, pipet solution)” value is listed as “not sufficient to suppress”. Besides, the “block of TRPC6 whole-cell current, blocker applied via the bath solution (outside)” value on TRPC6 [3] (1 μM, OAG or AlF4- activation, holding potential -60 mV) is “efficient block”. Further, the “effect on TRPV1” value on rat TRPV1 is on record as “not affected”. Besides, the “increase in lung wet weight (edema formation) under hypoxic treatment” value with lung edema formation is “prevented the increase in lung wet weight”.
